These are literature values, as cited in US8232273B2, “Heterocyclic compounds and methods of use” (Genentech, Inc., priority 2008, dated 2012).

For one data set, the system named is Bcl-2, Bcl-w and Bcl-xL. The settings on record: cited from earlier work.
The next data set deals with Mcl-1 and A1. To be noted: cited from earlier work.
Another data set has as its system xenograft models. The settings on record: animal studies, single agent; cited from earlier work.

Structures are written as SMILES.

Take `CC1(C)CCC(c2ccc(Cl)cc2)=C(CN2CCN(c3ccc(C(=O)NS(=O)(=O)c4ccc(N[C@H](CCN5CCOCC5)CSc5ccccc5)c(S(=O)(=O)C(F)(F)F)c4)cc3)CC2)C1` [ABT-263, N-(4-(4-((2-(4-chlorophenyl)-5,5-dimethyl-1-cyclohex-1-en-1-yl)methyl)piperazin-1-yl)benzoyl)-4-(((1R)-3-(morpholin-4-yl)-1-((phenylsulfanyl)methyl)propyl)amino)-3-((trifluoromethyl)sulfonyl)benzenesulfonamide]: the “binding to Bcl-2, Bcl-w and Bcl-xL” value in the data set with Bcl-2, Bcl-w and Bcl-xL was “bind strongly”. In addition, the “binding to Mcl-1 and A1” value in the data set on Mcl-1 and A1 is listed as “only weakly”. In addition, the “cytotoxic activity in certain xenograft models as single agents” value in the data set on xenograft models was “demonstrated cytotoxic activity”.
For `CN(C)CC[C@H](CSc1ccccc1)Nc1ccc(S(=O)(=O)NC(=O)c2ccc(N3CCN(Cc4ccccc4-c4ccc(Cl)cc4)CC3)cc2)cc1[N+](=O)[O-]` [ABT-737, N-(4-(4-((4′-chloro(1,1′-biphenyl)-2-yl)methyl)piperazin-1-yl)benzoyl)-4-(((1R)-3-(dimethylamino)-1-((phenylsulfanyl)methyl)propyl)amino)-3-nitrobenzenesulfonamide], the “binding to Bcl-2, Bcl-w and Bcl-xL” value in the data set with Bcl-2, Bcl-w and Bcl-xL was “bind strongly”. Also, the “binding to Mcl-1 and A1” value with Mcl-1 and A1 is “only weakly”. For the same compound, the “cytotoxic activity in certain xenograft models as single agents” value in the data set on xenograft models was “demonstrated cytotoxic activity”.
